Assay results from patent US20210227868A1, “Formula with specific beta-lactoglobulin peptides” (N.V. Nutricia, priority 2018, published 2021).

What was measured:
Experiment in all cases: T-cell proliferation assay (stimulation index)
Assay type in all cases: cell-based, human
TCL A = details: SI>=2 positive
Experimental: (§1) Synthetic peptides were obtained from JPT technologies. Only peptides containing at least 9 AAs were taken into account, as this is the minimal size for binding to MHC class II molecules and subsequent T-cell recognition (Holland et al, Front Immunol 2013 Jul 1; 4:172.) Synthetic peptides (JPT technologies) identical to the peptides identified in all batches of the HP of example 1 were dissolved in dimethylsulfoxide (Sigma Aldrich) at a concentration of 5.3 mM. The peptides were tested on cow's milk-specific T-cell lines (TCLs) from three different donors. The peptides were tested on cow's milk protein-specific T-cell lines (TCLs) from three infant donors, diagnosed with cow's milk protein allergy. […] Proliferation was determined as described previously (Ruiter et al, Clin Exp Allergy 2006, 36(3):303-310). Stimulation indexes (Sls, ratio between proliferation of allergen/peptide-stimulated and non-stimulated T cells) were calculated and a SI≥2 was considered positive.
(§2) To confirm that the peptides identified in HP were recognized by T cells, synthetic peptides identical to these identified peptides were tested on cow's milk-specific human TCLs. As there was a considered overlap between the identified peptides, five peptides were tested (Table 7) that were identified in all batches and differed with more than 9A from each other. All tested peptides were able to induce proliferation (FIG. 2). […] This was also seen with the in silico prediction data (data not shown). […] As peptide LIV . . . […] SLL (AA #1-32) did, the region containing AA #28-32 (DISLL) was essential for the response of TCL A. Unexpectedly, TCL C recognized peptide LIV . . . AAS (AA #1-27), while the longer peptide containing the same sequence with 5 additional AAs, LIV . . .

TCL C = details: SI>=2 positive
Experimental: as §1, §2

[1] = test system: cow's milk-specific T-cell lines (TCLs); details: TCLs of three cow's milk allergic donors; SI>=2 positive
Experimental: as §1, §2

Row | Sequence | T-cell proliferation (TCL A) | T-cell proliferation (TCL C) | T-cell proliferation / reactivity [1]
1 | LIVTQTMKGLDIQKVAGTWYSLAMAASDISLL (beta-lactoglobulin peptide fragment) [SEQ ID NO: 11] | did | not able to induce a proliferative response | –
2 | TMKGLDIQKVAGTWYSLAMAASDISLLDAQ (beta-lactoglobulin peptide fragment) [SEQ ID NO: 4] | – | – | reactivity of every cell line was covered
3 | LIVTQTMKGLDIQKVAGTWYSLAMAAS (beta-lactoglobulin peptide fragment) [SEQ ID NO: 9] | not able to induce proliferation | recognized | –
